Drawing on patent US20260325685A1, “Radiopharmaceutical Compositions Targeting Carbonic Anhydrase IX and Uses Thereof” (RayzeBio, Inc., priority 2023, published 2026), this text covers Kd for 18 compounds.

Like-named read-outs stand apart in the source and are kept apart here. Some results are limits rather than exact numbers.

One assay addresses T1, human CA-XII (Homo sapiens, UniProt O43570).
T1 construct: purchased Creative BioMart CA12-261H
Description: Surface Plasmon Resonance (SPR) binding kinetics to recombinant human CA-XII (Biacore 8K, single-cycle kinetics, 1:1 binding model). Put shortly:
(§1)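 Kinetics are measured at 25° C against streptavidin-captured CA-IX or CA-XII (1200-1800 RU) in PBS-P+ buffer, pH 7.4, containing 1% DMSO. Nine analyte concentrations span 100-0.39 nM, with 1200 s dissociation.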

A further assay concerns the target T2, human CA-IX (Homo sapiens, UniProt Q16790).
T2 construct: purchased Acro CA9-H82E3
Description: Surface Plasmon Resonance (SPR) binding kinetics to recombinant human CA-IX (Biacore 8K, single-cycle kinetics, 1:1 binding model). The gist of the method:
as §1

[1] abbreviates: Chelated Metal: Lu-175, 25° C., pH 7.4, read-out: CAXII KD.
Where [2] appears, read: Chelated Metal: Lu-175; SPR, 25° C., pH 7.4; read-out: CAIX KD.
The mark [3] stands for this setting: read-out: CAXII KD, Chelated Metal: Lu-175, 25° C., pH 7.4.
Where [4] appears, read: read-out: CAIX KD; Chelated Metal: Lu-175; SPR, 25° C., pH 7.4.

T1 sequence (O43570 25-354): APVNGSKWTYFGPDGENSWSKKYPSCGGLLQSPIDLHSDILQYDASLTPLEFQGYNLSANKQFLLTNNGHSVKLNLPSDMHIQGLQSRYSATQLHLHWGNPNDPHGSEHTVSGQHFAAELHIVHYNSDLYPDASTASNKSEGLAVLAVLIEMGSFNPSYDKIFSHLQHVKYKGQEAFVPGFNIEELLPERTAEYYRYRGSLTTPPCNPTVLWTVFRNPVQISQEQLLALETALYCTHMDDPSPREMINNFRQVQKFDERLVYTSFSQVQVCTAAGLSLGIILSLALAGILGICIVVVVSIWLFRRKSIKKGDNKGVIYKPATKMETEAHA

As for `NS(=O)(=O)c1nnc(NC(=O)C23CC(c4cn(CCNC(=O)[C@@H]5CN(C(=O)CN6CCN(CC(=O)O)CCN(CC(=O)O)CC6)CCN5C(=O)C[C@H](NC(=O)C[C@H](NC(=O)c5ccc(C6CC6)cn5)C(=O)O)C(=O)O)nn4)(C2)C3)s1.[Cu+2]` [Compound 126.2], the Kd at human CA-XII (Chelated Metal: Cu (cold), 25° C., pH 7.4, read-out: CAXII KD) is 2.5 to 10 nM; on human CA-IX (Chelated Metal: Cu (cold); SPR, 25° C., pH 7.4; read-out: CAIX KD), < 1 nM.
Consider `NS(=O)(=O)c1nnc(NC(=O)C23CC(c4cn(CCNC(=O)[C@@H]5CN(C(=O)CN6CCN(CC(=O)O)CCN(CC(=O)O)CCN(CC(=O)O)CC6)CCN5C(=O)C[C@H](NC(=O)C[C@H](NC(=O)CCC5CCCCCC5)C(=O)O)C(=O)O)nn4)(C2)C3)s1.[Lu+3]` [Compound 109.2], for which the Kd at human CA-XII (setting [1]) is 1 to 2.5 nM; on human CA-IX (setting [2]) it was < 1 nM.
For `CC(CCCC(=O)N1CCC(C(N)=O)(C(=O)NCC(=O)N2CCN(C(=O)CCOCCOCCOCCOCCN(CCOCCOCCOCCOCCC(=O)N3CCN(C(=O)CNC(=O)C4(C(N)=O)CCN(C(=O)CCCC(C)(c5ccc(O)cc5)c5ccc(O)cc5)CC4)[C@H](C(=O)NCCn4cc(C56CC(C(=O)Nc7nnc(S(N)(=O)=O)s7)(C5)C6)nn4)C3)C(=O)CNC(=O)CN3CCN(CC(=O)O)CCN(CC(=O)O)CCN(CC(=O)O)CC3)C[C@H]2C(=O)NCCn2cc(C34CC(C(=O)Nc5nnc(S(N)(=O)=O)s5)(C3)C4)nn2)CC1)(c1ccc(O)cc1)c1ccc(O)cc1.[Lu+3]` [Compound 131], the dissociation constant Kd at human CA-XII (setting [3]) is 2.5 to 10 nM; on human CA-IX (setting [4]) it was < 1 nM.
Consider `Cc1c(C(=O)N[C@@H](CC(=O)N[C@@H](CC(=O)N2CCN(C(=O)CN3CCN(CC(=O)O)CCN(CC(=O)O)CCN(CC(=O)O)CC3)C[C@H]2C(=O)NCCn2cc(C34CC(C(=O)Nc5nnc(S(N)(=O)=O)s5)(C3)C4)nn2)C(=O)O)C(=O)O)n[nH]c1C(F)(F)F.[Lu+3]` [Compound 109.3], for which the equilibrium dissociation constant (Kd) on human CA-XII (setting [1]) and at human CA-IX (setting [2]) was < 1 nM in each case.
As to `Cc1cc(C(=O)Nc2nnc(S(N)(=O)=O)s2)ccc1-c1cn(CCNC(=O)C2(NC(=O)CNC(=O)C3(C(N)=O)CCN(C(=O)CCCC(C)(c4ccc(O)cc4)c4ccc(O)cc4)CC3)CCN(C(=O)CN3CCN(CC(=O)O)CCN(CC(=O)O)CCN(CC(=O)O)CC3)CC2)nn1.[Lu+3]` [Compound 117.7], the dissociation constant Kd on human CA-XII (setting [1]) is > 10 nM; at human CA-IX (setting [2]) it was < 1 nM.
The like results for `NS(=O)(=O)c1nnc(NC(=O)C23CC(c4cn(CCNC(=O)[C@@H]5CN(C(=O)CN6CCN(CC(=O)O)CCN(CC(=O)O)CCN(CC(=O)O)CC6)CCN5C(=O)C[C@H](NC(=O)C[C@H](NC(=O)c5ccc(C6(C(F)(F)F)CC6)cc5)C(=O)O)C(=O)O)nn4)(C2)C3)s1.[Lu+3]` [Compound 109.24] were, in that order, 2.5 to 10 nM and 1 to 2.5 nM.
The like results for `NS(=O)(=O)c1nnc(NC(=O)C23CCC(c4cn(CCNC(=O)[C@@H]5CN(C(=O)CN6CCN(CC(=O)O)CCN(CC(=O)O)CCN(CC(=O)O)CC6)CCN5C(=O)CC[C@H](NC(=O)C[C@H](NC(=O)c5ccc(C6CC6)cc5)C(=O)O)C(=O)O)nn4)(CC2)CC3)s1.[Lu+3]` [Compound 109.54] were, in that order, < 1 nM and < 1 nM.
Consider `CCCCNc1c(F)c(S(N)(=O)=O)c(F)c(F)c1S(=O)(=O)CCOCc1cn(CCNC(=O)[C@H]2CN(C(=O)CN3CCN(CC(=O)O)CCN(CC(=O)O)CCN(CC(=O)O)CC3)CCN2C(=O)C[C@H](NC(=O)[C@@H]2COCCN2C(=O)CCC(C)(c2ccc(O)cc2)c2ccc(O)cc2)C(=O)O)nn1.[Lu+3]` [Compound 107.15], for which the values for the dissociation constant Kd at human CA-XII (setting [1]) and on human CA-IX (setting [2]) were > 10 nM and 1 to 2.5 nM, respectively.
Regarding `NS(=O)(=O)c1nnc(NC(=O)C23CC(c4cn(CCNC(=O)[C@@H]5CN(C(=O)CN6CCN(CC(=O)O)CCN(CC(=O)O)CCN(CC(=O)O)CC6)CCN5C(=O)C[C@H](NC(=O)C[C@H](NC(=O)CC5CC6(CCC6)C5)C(=O)O)C(=O)O)nn4)(C2)C3)s1.[Lu+3]` [Compound 109.18], the equilibrium dissociation constant (Kd) was 1 to 2.5 nM at human CA-XII (setting [1]) and < 1 nM on human CA-IX (setting [2]).
`CC(CCC(=O)N1CCOC[C@H]1C(=O)N[C@@H](CC(=O)N1CCN(C(=O)CN2CCN(CC(=O)O)CCN(CC(=O)O)CCN(CC(=O)O)CC2)C[C@@H]1Cn1cc(C23CC(C(=O)Nc4nnc(S(N)(=O)=O)s4)(C2)C3)nn1)C(=O)O)(c1ccc(O)cc1)c1ccc(O)cc1.[Lu+3]` [Compound 114]: the Kd is > 10 nM at human CA-XII (setting [3]) and 1 to 2.5 nM on human CA-IX (setting [4]).
Turning to `NS(=O)(=O)c1nnc(CC(=O)C23CC(c4cn(CCNC(=O)[C@H]5COCCN5C(=O)CC[C@H](NC(=O)[C@H](CCCCNC(=O)CN5CCN(CC(=O)O)CCN(CC(=O)O)CCN(CC(=O)O)CC5)NC(=O)CCC5CCCCC5)C(=O)O)nn4)(C2)C3)s1.[Lu+3]` [Compound 118.1], the dissociation constant Kd at human CA-XII (setting [1]) was > 10 nM; at human CA-IX (setting [2]), 1 to 2.5 nM.
With `CC(CCCC(=O)N1CCC(C(N)=O)(C(=O)NCC(=O)NC2(C(=O)NCCn3nnc(C45CC(C(=O)Nc6nnc(S(N)(=O)=O)s6)(C4)C5)c3C(=O)O)CCN(C(=O)CN3CCN(CC(=O)O)CCN(CC(=O)O)CCN(CC(=O)O)CC3)CC2)CC1)(c1ccc(O)cc1)c1ccc(O)cc1.[Lu+3]` [Compound 135], the figures for the Kd on human CA-XII (setting [3]) and on human CA-IX (setting [4]) were > 10 nM and < 1 nM, respectively.
In the case of `CC(CCC(=O)N[C@@H](CC(=O)N[C@@H](CCC(=O)N1CCN(C(=O)CN2CCN(CC(=O)O)CCN(CC(=O)O)CCN(CC(=O)O)CC2)C[C@@H]1C(=O)NCCn1cc(C23CC(C(=O)Nc4nnc(S(N)(=O)=O)s4)(C2)C3)nn1)C(=O)O)C(=O)O)(c1ccc(O)cc1)c1ccc(O)cc1.[Lu+3]` [Compound 107.13], the Kd on human CA-XII (setting [1]) was > 10 nM; at human CA-IX (setting [2]), 1 to 2.5 nM.
With `CC(C)(C)c1ccc(CC(=O)N[C@@H](CC(=O)N[C@@H](CC(=O)N2CCN(C(=O)CN3CCN(CC(=O)O)CCN(CC(=O)O)CCN(CC(=O)O)CC3)C[C@H]2C(=O)NCCn2cc(C34CC(C(=O)Nc5nnc(S(N)(=O)=O)s5)(C3)C4)nn2)C(=O)O)C(=O)O)cc1.[Lu+3]` [Compound 109.27], the dissociation constant (Kd) on human CA-XII (setting [1]) was in the range of 2.5 to 10 nM; at human CA-IX (setting [2]), 1 to 2.5 nM.
Taken in the same sequence, the figures for `NS(=O)(=O)c1nnc(NC(=O)C23CC(c4cn(CCNC(=O)[C@@H]5CN(C(=O)CN6CCN(CC(=O)O)CCN(CC(=O)O)CCN(CC(=O)O)CC6)CCN5C(=O)C[C@H](Nc5ncc(C(=O)NCc6ccc(C(F)F)cc6)cn5)C(=O)O)nn4)(C2)C3)s1.[Lu+3]` [Compound 111.6] were > 10 nM and 2.5 to 10 nM.
The like results for `CC(CCC(=O)N[C@@H](CC(=O)N[C@@H](CC(=O)N[C@@H](CCCCn1cc(C23CCC(C(=O)Nc4nnc(S(N)(=O)=O)s4)(CC2)CC3)nn1)C(=O)NCCOCCOCCNC(=O)CN1CCN(CC(=O)O)CCN(CC(=O)O)CCN(CC(=O)O)CC1)C(=O)O)C(=O)O)(c1ccc(O)cc1)c1ccc(O)cc1.[Lu+3]` [Compound 100.6] were, in that order, 1 to 2.5 nM and < 1 nM.
On to `NS(=O)(=O)c1nnc(NC(=O)C23CC(c4cn(CCNC(=O)[C@@H]5CN(C(=O)CN6CCN(CC(=O)O)CCN(CC(=O)O)CCN(CC(=O)O)CC6)CCN5C(=O)C[C@H](NC(=O)C[C@H](NC(=O)c5n[nH]c6ccccc56)C(=O)O)C(=O)O)nn4)(C2)C3)s1.[Lu+3]` [Compound 109.7], for which the Kd on human CA-XII (setting [1]) is 2.5 to 10 nM; on human CA-IX (setting [2]) it was < 1 nM.
As for `NS(=O)(=O)c1nnc(NC(=O)C23CC(c4cn(C[C@H]5CN(C(=O)CN6CCN(CC(=O)O)CCN(CC(=O)O)CCN(CC(=O)O)CC6)CCN5c5nccc(NCCc6n[nH]c7ccccc67)n5)nn4)(C2)C3)s1.[Lu+3]` [Compound 115], the Kd is > 10 nM at human CA-XII (setting [3]) and 2.5 to 10 nM at human CA-IX (setting [4]).
